Results published in US10219513B2, “Safening 4-amino-3-chloro-6-(4-chloro-2-fluoro-3-methoxyphenyl)-5-fluoropyridine-2-carboxylic acid compositions in Brassica species and methods of use thereof” (Dow AgroSciences LLC, priority 2016, dated 2019).
Values joined by “and” are separate entries in the source; they are usually repeats but may differ in a detail not shown here. Identical values can stand only once.

What was measured:
[1] = test system: Brassica napus (Nexera canola, BRSNN-NEX); assay: Greenhouse postemergence application, visual injury after 20-22 d, BRSNN-NEX
Description: (§1) Seeds of the desired test plant species were planted in Sun Gro MetroMix® 306 planting mixture, which typically has a pH of 6.0 to 6.8 and an organic matter content of about 30 percent, in plastic pots with a surface area of 103.2 square centimeters (cm^2). […] The plants were grown for 7-36 days (d) in a greenhouse with an approximate 14-hour (h) photoperiod which was maintained at about 23° C. during the day and 22° C. during the night. Nutrients and water were added on a regular basis and supplemental lighting was provided with overhead metal halide 1000-Watt lamps as necessary. The plants were employed for testing when they reached the second or third true leaf stage.
(§2) An aliquot of formulated benzyl 4-amino-3-chloro-6-(4-chloro-2-fluoro-3-methoxyphenyl)-5-fluoropyridine-2-carboxylate (florpyrauxifen-benzyl; 300 grams active ingredient per liter (g ai/L) suspension concentrate (SC)) was placed in a 25 mL glass vial and diluted in a volume of 1.25% (v/v) aqueous Agri-dex crop oil concentrated to obtain a stock solution. […] The concentrated stock solutions were diluted with an aqueous mixture of 1.25% v/v of aqueous Agri-dex crop oil concentrate to provide the appropriate application rates. Compound requirements are based upon a 12 milliliter (mL) application volume at a rate of 187 liters per hectare (L/ha). Stock solutions of the formulated materials were prepared following the same procedure. Spray solutions of the compound mixtures were prepared by adding the stock solutions to the appropriate amount of dilution solution to form a 12 mL spray solution. Formulated compounds were applied to the plant material with an overhead Mandel track sprayer equipped with 8002E nozzles calibrated to deliver 187 L/ha over an application area of 0.503 square meters (m^2) at a spray height of 18 inches (43 centimeters (cm)) above average plant canopy. Control plants were sprayed in the same manner with the solvent blank.
(§3) The treated plants and control plants were placed in a greenhouse as described above and watered by sub-irrigation to prevent wash-off of the test compounds. After 20-22 d, the condition of the test plants as compared with that of the control plants was determined visually and scored on a scale of 0 to 100 percent where 0 corresponds to no injury and 100 corresponds to complete kill. Colby's equation was used to determine the herbicidal effects expected from the mixtures.
(§4) Benzyl 4-amino-3-chloro-6-(4-chloro-2-fluoro-3-methoxyphenyl)-5-fluoropyridine-2-carboxylate (florpyrauxifen-benzyl, 300 g ai/L SC) was combined in two-, three-, and four-way mixtures with one or more of the following: clopyralid-olamine (as Lontrel™ 35A Herbicidal Concentrate), quinclorac (as Facet 75DF), isoxadifen-ethyl (100 g/L SC), cloquintocet-mexyl (120 g/L EC) or mefenpyr-diethyl (as mefenpyr-diethyl 15WP). The mixtures were applied to kale/Chinese kale (Brassica alboglabra, BRSAG), Juncea canola or brown mustard (Brassica juncea, BRSJU), rutabaga (Brassica napus var. napobrassica, BRSNA), all varieties of canola and oilseed rape (Brassica napus, BRSNN), Nexera™ canola (Brassica napus, BRSNN-NEX), winter oilseed rape (Brassica napus, BRSNW), Roundup Ready® canola (Brassica napus, RR-BRSNN), and turnip or Polish canola (Brassica rapa, BRSRR), and the phytotoxicity of the compositions was measured.
(§5) Colby's equation was used to determine the herbicidal effects expected from the mixtures evaluated in the described trials (Colby, S. R. Calculation of the synergistic and antagonistic response of herbicide combinations. Weeds 1967, 15, 20-22.).
(§6) The following equation was used to calculate the expected activity of mixtures containing two active ingredients, A and B: Expected=A+B−(A×B/100) • A=observed efficacy of active ingredient A at the same concentration as used in the mixture; • B=observed efficacy of active ingredient B at the same concentration as used in the mixture.

[2] = test system: Brassica napus var. napobrassica (rutabaga, BRSNA); assay: Greenhouse postemergence application, visual injury after 20-22 d, BRSNA
Description: as §1, §2, §3, §4, §5, §6

[3] = test system: Brassica alboglabra (kale/Chinese kale, BRSAG); assay: Greenhouse postemergence application, visual injury after 20-22 d, BRSAG
Description: as §1, §2, §3, §4, §5, §6

[4] = florpyrauxifen-benzyl 2.5 g ai/ha alone
[5] = florpyrauxifen-benzyl 5 g ai/ha alone
[6] = florpyrauxifen-benzyl 10 g ai/ha alone
[7] = florpyrauxifen-benzyl alone 2.5 g ai/ha
[8] = florpyrauxifen-benzyl alone 5 g ai/ha
[9] = florpyrauxifen-benzyl alone 10 g ai/ha
[10] = postemergence application, greenhouse, application rate (g ai/ha) varies
[11] = isoxadifen-ethyl 5 g ai/ha alone
[12] = isoxadifen-ethyl 10 g ai/ha alone
[13] = isoxadifen-ethyl 20 g ai/ha alone
[14] = isoxadifen-ethyl 40 g ai/ha alone

COc1c(Cl)ccc(-c2nc(C(=O)OCc3ccccc3)c(Cl)c(N)c2F)c1F [Florpyrauxifen-benzyl, benzyl 4-amino-3-chloro-6-(4-chloro-2-fluoro-3-methoxyphenyl)-5-fluoropyridine-2-carboxylate]
12%: % Visual Injury Obs ([1]; BRSNN-NEX, 5 g ai/ha) | Obs % visual injury ([1]; BRSNN-NEX, florpyrauxifen-benzyl alone 5 g ai/ha) | % Visual Injury BRSNN-NEX Obs [1, 5] | % Visual Injury Obs [1, 5] | Obs % visual injury BRSNN-NEX [1, 8]
4%: % Visual Injury Obs ([2]; BRSNA, 2.5 g ai/ha) | % Visual Injury Obs ([2]; BRSNA, 5 g ai/ha) | Obs % visual injury ([2]; BRSNA, florpyrauxifen-benzyl alone 2.5 g ai/ha) | Obs % visual injury ([2]; BRSNA, florpyrauxifen-benzyl alone 5 g ai/ha) | % Visual Injury BRSNA Obs [2, 4] | % Visual Injury Obs [2, 4] | % Visual Injury BRSNA Obs [2, 5] | % Visual Injury Obs [2, 5] | Obs % visual injury BRSNA [2, 7] | Obs % visual injury BRSNA [2, 8]
4% and 13%: % Visual Injury BRSNA Obs [2, 10]
3% and 7% and 5%: % Visual Injury BRSAG Obs [3, 10]
3%: % Visual Injury Obs ([3]; BRSAG, 5 g ai/ha) | Obs % visual injury ([3]; BRSAG, florpyrauxifen-benzyl alone 5 g ai/ha) | % Visual Injury BRSAG Obs [3, 5] | % Visual Injury Obs [3, 5] | Obs % visual injury BRSAG [3, 8]
7%: % Visual Injury Obs ([1]; BRSNN-NEX, 2.5 g ai/ha) | Obs % visual injury ([1]; BRSNN-NEX, florpyrauxifen-benzyl alone 2.5 g ai/ha) | % Visual Injury BRSNN-NEX Obs [1, 4] | % Visual Injury Obs [1, 4] | Obs % visual injury BRSNN-NEX [1, 7] | % Visual Injury Obs ([3]; BRSAG, 10 g ai/ha) | Obs % visual injury ([3]; BRSAG, florpyrauxifen-benzyl alone 10 g ai/ha) | % Visual Injury BRSAG Obs [3, 6] | % Visual Injury Obs [3, 6] | Obs % visual injury BRSAG [3, 9]
19%: % Visual Injury Obs ([1]; BRSNN-NEX, 10 g ai/ha) | Obs % visual injury ([1]; BRSNN-NEX, florpyrauxifen-benzyl alone 10 g ai/ha) | % Visual Injury BRSNN-NEX Obs [1, 6] | % Visual Injury Obs [1, 6] | Obs % visual injury BRSNN-NEX [1, 9]
13%: % Visual Injury Obs ([2]; BRSNA, 10 g ai/ha) | Obs % visual injury ([2]; BRSNA, florpyrauxifen-benzyl alone 10 g ai/ha) | % Visual Injury BRSNA Obs [2, 6] | % Visual Injury Obs [2, 6] | Obs % visual injury BRSNA [2, 9]
5%: % Visual Injury Obs ([3]; BRSAG, 2.5 g ai/ha) | Obs % visual injury ([3]; BRSAG, florpyrauxifen-benzyl alone 2.5 g ai/ha) | % Visual Injury BRSAG Obs [3, 4] | % Visual Injury Obs [3, 4] | Obs % visual injury BRSAG [3, 7]

CCOC(=O)C1=NOC(c2ccccc2)(c2ccccc2)C1 [Isoxadifen-ethyl, ethyl 4,5-dihydro-5,5-diphenyl-1,2-oxazole-3-carboxyalte]
0%: % Visual Injury Obs ([1]; BRSNN-NEX, 5 g ai/ha) | % Visual Injury Obs ([1]; BRSNN-NEX, 10 g ai/ha) | % Visual Injury Obs ([1]; BRSNN-NEX, 20 g ai/ha) | % Visual Injury Obs ([1]; BRSNN-NEX, 40 g ai/ha) | Obs % visual injury ([1]; BRSNN-NEX, partner alone 5 g ai/ha) | Obs % visual injury ([1]; BRSNN-NEX, partner alone 10 g ai/ha) | Obs % visual injury ([1]; BRSNN-NEX, partner alone 20 g ai/ha) | Obs % visual injury ([1]; BRSNN-NEX, partner alone 40 g ai/ha) | % Visual Injury Obs [1, 11] | % Visual Injury Obs [1, 12] | % Visual Injury Obs [1, 13] | % Visual Injury Obs [1, 14] | % Visual Injury BRSNN-NEX Obs [1, 10] | % Visual Injury Obs ([2]; BRSNA, 5 g ai/ha) | % Visual Injury Obs ([2]; BRSNA, 10 g ai/ha) | % Visual Injury Obs ([2]; BRSNA, 20 g ai/ha) | % Visual Injury Obs ([2]; BRSNA, 40 g ai/ha) | Obs % visual injury ([2]; BRSNA, partner alone 5 g ai/ha) | Obs % visual injury ([2]; BRSNA, partner alone 10 g ai/ha) | Obs % visual injury ([2]; BRSNA, partner alone 20 g ai/ha) | Obs % visual injury ([2]; BRSNA, partner alone 40 g ai/ha) | % Visual Injury Obs [2, 11] | % Visual Injury Obs [2, 12] | % Visual Injury Obs [2, 13] | % Visual Injury Obs [2, 14] | % Visual Injury BRSNA Obs [2, 10] | % Visual Injury Obs ([3]; BRSAG, 5 g ai/ha) | % Visual Injury Obs ([3]; BRSAG, 10 g ai/ha) | % Visual Injury Obs ([3]; BRSAG, 20 g ai/ha) | % Visual Injury Obs ([3]; BRSAG, 40 g ai/ha) | Obs % visual injury ([3]; BRSAG, partner alone 5 g ai/ha) | Obs % visual injury ([3]; BRSAG, partner alone 10 g ai/ha) | Obs % visual injury ([3]; BRSAG, partner alone 20 g ai/ha) | Obs % visual injury ([3]; BRSAG, partner alone 40 g ai/ha) | % Visual Injury Obs [3, 11] | % Visual Injury Obs [3, 12] | % Visual Injury Obs [3, 13] | % Visual Injury Obs [3, 14] | % Visual Injury BRSAG Obs [3, 10]
